Measured values taken from patent US10633386B2, “BET protein degraders” (THE REGENTS OF THE UNIVERSITY OF MICHIGAN, priority 2016, dated 2020).

Columns and labels:
[1] = test system: TNBC cell lines; assay: Combination apoptosis induction (immunoblotting and/or Annexin-PI staining); format: cell-based; conditions: TNBC cell lines (FIGS. 15 and 16; ABT-263 data not shown)
Experimental: Immunoblotting and/or Annexin-PI staining confirmed that BM-1197 (250 nM), ABT-263 (250 nM), and A-1155463 (250 nM) potentiated Cpd. No. 4-induced apoptosis (50 nM) in MDA-MB-468 (FIG. 14) and other TNBC cell lines (data not shown). Synergistic induction of apoptosis by Cpd. […] No. 4-induced apoptosis in these cell lines. […] A with either BM-1197 (FIGS. 15 and 16) or ABT-263 (data not shown). […] No. 4 and BM-1197 was also detected in additional TNBC cell lines responsive to Cpd. No. 4-induced apoptosis (BT-20 and MDA-MB-157) (data not shown), further supporting that BCL-XL inhibitors potentiate Cpd. No. 4-induced apoptosis in TNBC.

[2] = test system: MDA-MB-468 xenograft; assay: In vivo antitumor activity in MDA-MB-468 xenograft model; parameters: species or system SCID mice
Experimental: For the in vivo efficacy experiments of this example, when tumors reached 80-200 mm^3, SCID mice were randomized into groups. Cpd. A, Cpd. No. 4, Cpd. No. 6, or vehicle control (10% PEG400: 3% Cremophor: 87% PBS, or 2% TPGS:98% PEG200) was given at the dose and duration indicated. Tumor sizes and animal weights were measured 2-3 times per week. Tumor volume (mm^3)=(length×width^2)/2. Tumor growth inhibition was calculated as TGI (%)=(Vc−Vt)/(Vc−Vo)*100, where Vc, Vt are the median of control and treated groups at the end of the study and Vo at the start. All the in vivo studies were performed under an animal protocol approved by the University Committee on Use and Care of Animals of the University of Michigan, in accordance with the recommendations in the Guide for the Care and Use of Laboratory Animals of the National Institutes of Health.
No. 4 was determined in xenograft tumor models of TNBC cell lines.

[3] = Pharmacokinetics (PK) analysis in tumor bearing mice; format: in vivo
Experimental: (§1) Cpd. […] A at 50 mg/kg, daily, oral dosing, 5 days a week for 3 weeks. Cpd. […] Neither Cpd. A nor Cpd. No. 4 caused significant weight loss (data not shown) or apparent toxicity in this model. […] No. 4 (10 mg/kg) reduced the levels of BET proteins by >80% at as early as 1 h and this effect lasted for at least 9 h in WHIM24 tumors (data not shown). […] No. 4 treatment (data not shown). […] No. 4 is reversible once the drug is cleared from the tumor tissue.

[4] = test system: MCL1 protein; assay: PD analysis of MCL1 protein in WHIM24 tumors; format: in vivo, mice; conditions: at as early as 3 h after treatment (data not shown)
Experimental: as §1

[5] = test system: BET proteins; assay: PD analysis of BET proteins in WHIM24 tumors; format: in vivo, mice; conditions: single IV dose 10 mg/kg
Experimental: as §1

[6] = test system: Mono-Mac6; assay: Cell growth inhibition (CellTiter-Glo), leukemia line Mono-Mac6; format: cell-based; conditions: Homo sapiens, MONO-MAC-6
Experimental: (§2) Cell growth inhibitory activity of representative BET bromodomain degraders in representative non-small cell lung cancer cell lines was determined using the CellTiter-Glo® Luminescent Cell Viability Assay. Cells were seeded in 384-well white opaque cell culture plates at a density of 2,000 cells/well with serially diluted compounds and incubated at 37° C. in an atmosphere of 95% air and 5% CO2 for 4 days. Cell viability was determined using the CellTiter-Glo® Luminescent Cell Viability Assay Kit (Promega, Madison, Wis.) according to the manufacture's instruction. Briefly, a volume of CellTiter-Glo® Reagent equal to the volume of cell culture medium was added to each well, and then the plates were incubated at room temperature for 10-20 minutes. The luminescent signal was measured using a Tecan Infinite M1000 multimode microplate reader (Tecan, Morrisville, N.C.). The half maximal inhibitory concentration (IC50) was calculated using the GraphPad Prism 5 software (GraphPad Software, La Jolla, Calif.). Cpd. A is a BET bromodomain inhibitor, see U.S. Appl. No. 62/121,637, having the following structure: Cell growth inhibitory activity of representative BET bromodomain degraders in representative leukemia cell lines, see Table 8, was determined as described in Example 17.

[7] = test system: MOLM16; assay: Cell growth inhibition (CellTiter-Glo), leukemia line MOLM16; format: cell-based
Experimental: as §2

[8] = test system: RS4; 11; assay: Cell growth inhibition (CellTiter-Glo), leukemia line RS4; 11; format: cell-based; conditions: Homo sapiens, 11 leukemia cell line
Experimental: as §2

[9] = test system: TNBC cell lines; assay: Apoptosis induction in TNBC cell lines; format: cell-based; conditions: triple-negative breast cancer (TNBC) cell lines (FIG. 12)
[10] = test system: AML-193; assay: Cell growth inhibition (CellTiter-Glo), leukemia line AML-193; format: cell-based; conditions: AML-193 leukemia cell line
Experimental: as §2

Row | SMILES | synergism with either BM-1197 or ABT-263 [1] | antitumor activity ([2]; MDA-MB-468 model, 10 mg/kg, IV, 3 times per week for 2-3 weeks (FIG. 11)) | tumor growth ([2]; MDA-MB-468 xenograft model in mice (FIG. 11)) | drug exposure in the xenograft tumor tissue ([3]; MDA-MB-231 and MDA-MB-468 models (data not shown)) | drug exposure in the WHIM24 xenograft tumor tissue ([3]; WHIM24 model) | drug concentrations in both plasma and tumors over time ([3]; single dose 10 mg/kg, WHIM24 tumor bearing mice (data not shown)) | drug exposure in plasma and WHIM24 tumors ([3]; single dose 10 mg/kg, tumor bearing mice, at 1 and 3 h (data not shown)) | MCL1 protein levels in tumors [4] | time at which protein levels of BRD2, BRD4 and MCL1 started to rebound ([5]; WHIM24 tumors) [h] | duration of the reduction of BET proteins in WHIM24 tumors [5] | reduction of the levels of BET proteins in WHIM24 tumors ([5]; at as early as 1 h (data not shown)) [%] | IC50 [6] [nM] | IC50 [7] [nM] | IC50 [8] [nM] | apoptosis induction [9] | IC50 [10] [nM]
1 | CCn1nc(C2CC2)cc1Nc1nc(COC)nc2[nH]c3cc(-c4c(C)noc4C)c(OC)cc3c12 [Cpd. A, reference compound] | No clear synergism |  |  |  |  |  |  |  |  |  |  |  |  |  |  | 
2 | CCn1nc(C2CC2)cc1Nc1nc(C(=O)NCCCOCCOCCOCCCNc2cccc3c2C(=O)N(C2CCC(=O)NC2=O)C3=O)nc2[nH]c3cc(-c4c(C)noc4C)c(OC)cc3c12 (stereo not shown) [Cpd. No. 4] |  | limited or no antitumor activity | reduce tumor growth | limited drug exposure | good drug exposure | diminished rapidly | reasonable drug exposure | markedly reduced | 12 | at least 9 h | > 80 | 1400 | 300 | 50 | induces stronger apoptosis than Cpd. A | 40
